Measurements reported in patent US7919519B2, “S1P receptor modulating compounds and use thereof” (Epix Pharmaceuticals Inc., priority 2005, dated 2011).

The compounds below were run against T1, hS1P1 (Homo sapiens, UniProt P21453) (assay: hS1P1 EC50 (S1P receptor Ca2+ flux protocol, CHO K1 Gqi5 cells)).
T1 construct: expressed in transfected cells
Format: cell-based
Procedure: S1P receptor activity may also be measured by an S1P receptor (e.g., hS1P1, hS1P3, rS1P1, rS1P3 and parental cell) Ca^2+ Flux protocol as described below:
1. Material • a. FLIPR buffer: 1×HBSS; 10 mM HEPES • b. Cell growth media: • i. human and rat S1P1 and S1P3: F12-Ham's media; 10% FBS (qualified); 1× Pen/Strep/Glu; 300 ug/mL Hygromycin; 400 ug/mL Geneticin • ii. Parental cell: human and rat S1P1 and S1P3: F12-Ham's media; 10% FBS (qualified); 1× Pen/Strep/Glu; 300 ug/mL Hygromycin; • c. Cell seeding media; F12-Ham's media; 10% FBS (Charcoal/dextran stripped); 1× Pen/Strep/Glu; • d. Cell dissociation buffer: Versene from Invitrogen • e. Agonist (S1P) dissolving buffer: 0.4% (w/v) fatty-acid free BSA (Sigma #A8806) in FLIPR buffer • f. FLIPR dye: BD PBX Calcium assay kit; Cat#641077 is composed of Calcium indicator (Cat#850000) and 100×PBX signal enhancer (cat#850001). The 100×PBX signal enhancer is diluted into FLIPR buffer 1:100 and the calcium indicator is then added at 1:1000 ratio. • g. Cell plates (96-well): Greiner Cat#655090 • h. Compound plates (96-well): Costar #3365 • i. S1P stock solution preparation: S1P is purchased from CalBioChem (Catalog #970471; 1 mg vial; custom prep using methanol, & nitrogen gas drying inside glass vial; Storage @ −20° C.). Dissolve 1 vial of S1P into 26.4 ml of agonist dissolving buffer in a 50 ml centrifuge tube; Remove label from bottle of S1P, open and drop entire bottle into tube. Sonicate at 37° for ½ hour. Clear solution of 100 μM will result. This stock solution is aliquoted and stored at −80 C
2. Cell line maintenance • a. V5 tags were added at the N-terminus of hS1P1, hS1P3, rS1P1 and rS1P3. All four genes were transfected into CHO K1 cells which stably express Gqi5. • b. hS1P1 and hS1P3 were established as stable clones and rS1P1 and rS1P3 were sorted by anti V5 tag and established as stable pools after sorting. • c. Parental cell line CHO/K1 Gqi5 is used as the control. • d. All the cells are maintained in cell growth media and splitted twice a week using Versene. • e. All the cell lines are used under passage 30.
3. Assay protocol • a. Cell seeding: Cells are lifted from the flask by Versene and seeded in cell plates at 50K/well in cell seeding media. Cells are grown overnight at 37 degree. • b. Cell loading: Cell seeding media is discarded. Cells are loaded with 50 ul of FLIPR dye at RT for 90 min. Signal is stable for up to 5 h after dye loading. • c. Agonist (S1P) preparation: Frozen stock of S1P is thawed out and sonicated at 37 c for 30 minutes every time before use. The stock is then diluted into FLIPR buffer at proper concentration. • d. Compound preparation: Compounds are dissolved in DMSO. A 3×, 10 point dilution of the compounds are carried out in DMSO. Then the compounds are diluted into assay buffer 133× so that the DMSO concentration is 0.75%. • e. Activity measurement: The fluorescence signal change of the cells upon compound addition is monitored in FLIPRtetra. 25 ul of compound is transferred into the cell plates (50 ul of FLIPR dye; DMSO concentration: 0.25%). Signal is recorded for 90 sec after compound addition. Then 50 ul of 500 nM S1P is added in the cell plate, and signal is recorded for 90 seconds upon addition.
4. Data analysis • a. Peak value is calculated for each compound/S1P addition • b. The peak value of S1P at 200 nM is used as high control (100%), and the peak value of buffer only is used as low control (0%). • c. Data is normalized against high and low controls using the following equation: POC—S=100*(RAW−LO)/(HI−LO) • d. Peak value is plotted against the concentration of compound. • e. Curve is fitted using the 4 parameter fit: Y=(A+(B/(1+((x/C)^D)))) • where: • Y is POC_S (or POC) • X is compound concentration • A is the minimum (EC50min or IC50min) • B is the maximum (EC50max or IC50max) • C is the inflection point (EC50IP or IC50IP) • D is the hill slope (EC50 slope or IC50 slope).

T1 sequence (P21453 whole entry): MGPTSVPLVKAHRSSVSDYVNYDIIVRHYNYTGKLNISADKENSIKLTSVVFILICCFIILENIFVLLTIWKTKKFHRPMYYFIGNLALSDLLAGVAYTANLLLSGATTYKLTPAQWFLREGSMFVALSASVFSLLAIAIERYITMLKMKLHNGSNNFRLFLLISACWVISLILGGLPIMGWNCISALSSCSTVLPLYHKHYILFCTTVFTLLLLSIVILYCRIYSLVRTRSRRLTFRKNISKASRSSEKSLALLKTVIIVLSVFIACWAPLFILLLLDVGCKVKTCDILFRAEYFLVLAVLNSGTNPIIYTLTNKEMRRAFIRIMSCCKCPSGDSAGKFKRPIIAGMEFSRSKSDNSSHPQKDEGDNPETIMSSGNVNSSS

Compound | EC50 [µM]
O=C(O)C1CN(Cc2ccc(-c3cc4cc(CCc5ccccc5)ccc4o3)cc2)C1 [Compound 11, 1-((4-(5-phenethylbenzofuran-2-yl)phenyl)methyl)azetidine-3-carboxylic acid] | ≥ 25
CCCCOc1ccc2cc(-c3ccc(CN4CC(C(=O)O)C4)cc3)oc2c1 [Compound 21, 1-((4-(6-Butoxybenzofuran-2-yl)phenyl)methyl)azetidine-3-carboxylic acid] | 0.2
CCCCOc1ccc2oc(-c3ncc(CN4CC(C(=O)O)C4)s3)cc2c1 [Compound 22, 1-((2-(5-butoxybenzofuran-2-yl)thiazol-5-yl)methyl)azetidine-3-carboxylic acid] | 1.1
CCCCOc1ccc2oc(-c3ccc(CN4CC(C(=O)O)C4)cc3F)cc2c1 [Compound 23, 1-((4-(5-Butoxybenzofuran-2-yl)3-fluorophenyl)methyl)azetidine-3-carboxylic acid] | 0.52
CC(C)(CC(=O)O)NCc1ccc(-c2cc3cc(Cc4ccccc4)ccc3o2)c(F)c1 [Compound 46, 3-((4-(5-Benzylbenzofuran-2-yl)-3-fluorophenyl)methylamino)-3-methylbutanoic acid] | > 25

Results, then the compound that gave them:

EC50 [µM] | Compound
> 25 | O=C(O)C1CCN(Cc2ccc(-c3cc4cc(C5CCCCC5)ccc4o3)cc2)CC1 [Compound 7, 1-(4-(5-cyclohexylbenzofuran-2-yl)benzyl)piperidine-4-carboxylic acid]
> 25 | CCCCc1ccc2oc(-c3ccc(CN4CCC(C(=O)O)CC4)cc3)cc2c1 [Compound 8, 1-((4-(5-Butylbenzofuran-2-yl)phenyl)methyl)piperidine-4-carboxylic acid]
≥ 25 | O=C(O)C1CCN(Cc2ccc(-c3cc4cc(Cc5ccccc5)ccc4o3)cc2)CC1 [Compound 9, 1-((4-(5-Benzylbenzofuran-2-yl)phenyl)methyl)piperidine-4-carboxylic acid]
> 25 | CC(C)Cc1ccc2oc(-c3ccc(CN4CCC(C(=O)O)CC4)cc3)cc2c1 [Compound 13, 1-(4-(5-isobutylbenzofuran-2-yl)benzyl)piperidine-4-carboxylic acid]
≥ 25 | O=C(O)C1CN(Cc2ccc(-c3cc4cc(-c5cccs5)ccc4o3)cc2)C1 [Compound 28, 1-((4-(5-(thiophen-2-yl)benzofuran-2-yl)phenyl)methyl)azetidine-3-carboxylic acid]
